Experimental data as given in ChEMBL document CHEMBL2010642, “Trichostatin analogues JBIR-109, JBIR-110, and JBIR-111 from the marine sponge-derived Streptomyces sp. RM72” (J Nat Prod, 2012).

Target: Histone deacetylase 1 (Homo sapiens, UniProt Q13547)
Assay: Inhibition of human HDAC1 after 30 mins by fluorescence assay

Histone deacetylase 1, sequence (Q13547 whole entry): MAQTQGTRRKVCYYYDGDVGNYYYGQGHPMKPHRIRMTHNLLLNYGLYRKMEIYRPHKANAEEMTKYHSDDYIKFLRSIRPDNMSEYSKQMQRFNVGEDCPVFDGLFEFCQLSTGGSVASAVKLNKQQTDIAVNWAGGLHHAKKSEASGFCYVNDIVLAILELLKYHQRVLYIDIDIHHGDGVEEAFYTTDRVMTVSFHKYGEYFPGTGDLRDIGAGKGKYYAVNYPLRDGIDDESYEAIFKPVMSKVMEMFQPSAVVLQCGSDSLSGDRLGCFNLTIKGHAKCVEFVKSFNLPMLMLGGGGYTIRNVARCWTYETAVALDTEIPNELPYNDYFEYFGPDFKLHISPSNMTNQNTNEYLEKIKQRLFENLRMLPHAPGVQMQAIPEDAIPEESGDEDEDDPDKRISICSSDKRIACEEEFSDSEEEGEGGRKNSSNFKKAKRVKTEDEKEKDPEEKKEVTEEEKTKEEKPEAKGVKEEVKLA

| IC50 | Structure (SMILES) |
| --- | --- |
| 48 µM | CC(/C=C/C(=O)N[C@@H](CCC(=O)O)C(=O)O)=C\[C@@H](C)C(=O)c1ccc(N(C)C)cc1 |
| 74 µM | CC(/C=C/C(=O)NCCS(=O)(=O)O)=C\[C@@H](C)C(=O)c1ccc(N(C)C)cc1 |
| 57 µM | CC(/C=C/C(=O)N[C@](C)(CO)C(=O)O)=C\[C@@H](C)C(=O)c1ccc(N(C)C)cc1 |
| 73 µM | CC(/C=C/C(=O)O)=C\[C@@H](C)C(=O)c1ccc(N(C)C)cc1 [TRICHOSTATIC ACID] |
